Source: patent US6339045B1, “N-(unsubstituted or substituted)-4-substituted-6-(unsubstituted or substituted)phenoxy-2-pyridinecarboxamides or thiocarboxamides, processes for producing the same, and herbicides” (Kureha Kagaku Kogyo Kabushiki Kaisha, priority 1995, dated 2002)

What was measured:
Test in all cases: Herbicidal effect by foliage and soil treatment
Type in all cases: in vivo
Conditions in all cases: 10 g ai/10a, evaluated after 14 days
[1] = system: redroot pigweed (Amaranthus retroflexus)
Source text: (§1) Experiment for Determination of Herbicidal Effect by Foliate and Soil Treatment Seeds of redroot pigweed (Amaranthus retroflexus), common blackjack (Bidens pilosa), kediock (Sinapis arvensis), common chickweed (Stellaria media), sicklepod (Cassia obtusifolia), black nightshade (Solanum nigrum), velvetleaf (Abutilon theophrasti), field bindweed (Convolvulus arvensis), wild chamomile (Matricaria chamomilla), cleavers (Galium aparine) and […] (Veronica hederaefolia), were uniformly sowed over a horticultural granular soil (produced by KUREHA CHEMICAL INDUSTRY, CO., LTD.; the same soil was used hereinafter) filled in a planter. The planter was placed in a greenhouse (maintained at 19 to 25° C.) to sprout these plants. Two seedlings of each sprouted plant were transplanted to a 10 cm-diameter pot filled with the horticultural granular soil and cultivated in the greenhouse (maintained at 19 to 25° C.) until reaching a cotyledonal to bifoliate period suited to the foliage and soil treatment. […] Next, additional amounts of Tween 20 and water were added to the obtained solution or suspension to produce a test solution. The plants prepared in the above (1) were placed within a frame having a predetermined inside area, and uniformly sprayed with the test solution using a sprayer such that the amount of each compound applied was controlled to a predetermined level. The plants sprayed with the test solution were placed again in the greenhouse (maintained at 19 to 25° C.) and cultivated therein. After 14 days, the degree of growth of each plant cultivated in the treated region was compared with that of plant cultivated in non-treated region, and evaluated according to the following ratings. The herbicidal activity of each test compound was represented by these ratings

[2] = system: field bindweed (Convolvulus arvensis)
Source text: as §1

[3] = system: common chickweed (Stellaria media)
Source text: as §1

[4] = system: velvetleaf (Abutilon theophrasti)
Source text: as §1

[5] = system: wild chamomile (Matricaria chamomilla)
Source text: as §1

[6] = system: sicklepod (Cassia obtusifolia)
Source text: as §1

[7] = system: cleavers (Galium aparine)
Source text: as §1

[8] = system: black nightshade (Solanum nigrum)
Source text: as §1

[9] = system: common blackjack (Bidens pilosa)
Source text: as §1

[10] = system: ivyleafspeedwell (Veronica hederaefolia)
Source text: as §1

[11] = system: kediock (Sinapis arvensis)
Source text: as §1

Structure (SMILES)	herbicidal activity rating, AR (Amaranthus retroflexus) [1]	herbicidal activity rating, CA (Convolvulus arvensis) [2]	herbicidal activity rating, SM (Stellaria media) [3]	herbicidal activity rating, AT (Abutilon theophrasti) [4]	herbicidal activity rating, MC (Matricaria chamomilla) [5]	herbicidal activity rating, CO (Cassia obtusifolia) [6]	herbicidal activity rating, GA (Galium aparine) [7]	herbicidal activity rating, SN (Solanum nigrum) [8]	herbicidal activity rating, BP (Bidens pilosa) [9]	herbicidal activity rating, VH (Veronica hederaefolia) [10]	herbicidal activity rating, SA (Sinapis arvensis) [11]
COc1cc(Oc2cccc(C(F)(F)F)c2)nc(C(=O)NC2CC2)c1 [Compound I-48, N-cyclopropyl-4-methoxy-6-{3-(trifluoromethyl)phenoxy}-2-pyridine carboxamide]	5 (percentage of weeds killed was not less than 80%)	5 (percentage of weeds killed was not less than 80%)	5 (percentage of weeds killed was not less than 80%)	5 (percentage of weeds killed was not less than 80%)	5 (percentage of weeds killed was not less than 80%)	5 (percentage of weeds killed was not less than 80%)	5 (percentage of weeds killed was not less than 80%)	5 (percentage of weeds killed was not less than 80%)	4 (percentage of weeds killed was not less than 60% and less than 80%)	5 (percentage of weeds killed was not less than 80%)	5 (percentage of weeds killed was not less than 80%)
CONC(=O)c1cc(OC)cc(Oc2cccc(C(F)(F)F)c2)n1 [Compound I-97, N-methoxy-4-methoxy-6-{3-(trifluoromethyl)phenoxy}-2-pyridine carboxamide]	5 (percentage of weeds killed was not less than 80%)	4 (percentage of weeds killed was not less than 60% and less than 80%)	5 (percentage of weeds killed was not less than 80%)	5 (percentage of weeds killed was not less than 80%)	5 (percentage of weeds killed was not less than 80%)	5 (percentage of weeds killed was not less than 80%)	5 (percentage of weeds killed was not less than 80%)	5 (percentage of weeds killed was not less than 80%)	5 (percentage of weeds killed was not less than 80%)	5 (percentage of weeds killed was not less than 80%)	5 (percentage of weeds killed was not less than 80%)
COc1cc(Oc2cccc(C(F)(F)F)c2)nc(C(=O)N2CCCC2)c1 [Compound I-302, 4-methoxy-2-{N-(pyrrolidinyl)carbonyl}-6-{3-(trifluoromethyl)phenoxy}pyridine]	5 (percentage of weeds killed was not less than 80%)	4 (percentage of weeds killed was not less than 60% and less than 80%)	5 (percentage of weeds killed was not less than 80%)	4 (percentage of weeds killed was not less than 60% and less than 80%)	4 (percentage of weeds killed was not less than 60% and less than 80%)	5 (percentage of weeds killed was not less than 80%)	5 (percentage of weeds killed was not less than 80%)	5 (percentage of weeds killed was not less than 80%)	2 (percentage of weeds killed was not less than 20% and less than 40%)	5 (percentage of weeds killed was not less than 80%)	5 (percentage of weeds killed was not less than 80%)
CCCCNC(=O)c1cc(OC)cc(Oc2cccc(C(F)(F)F)c2)n1 [Compound I-36]	5 (percentage of weeds killed was not less than 80%)	5 (percentage of weeds killed was not less than 80%)	5 (percentage of weeds killed was not less than 80%)	4 (percentage of weeds killed was not less than 60% and less than 80%)	5 (percentage of weeds killed was not less than 80%)	5 (percentage of weeds killed was not less than 80%)	5 (percentage of weeds killed was not less than 80%)	5 (percentage of weeds killed was not less than 80%)	5 (percentage of weeds killed was not less than 80%)	5 (percentage of weeds killed was not less than 80%)	5 (percentage of weeds killed was not less than 80%)
COc1cc(Oc2cccc(C(F)(F)F)c2)nc(C(=O)NOCC2CC2)c1 [Compound I-107]	5 (percentage of weeds killed was not less than 80%)	4 (percentage of weeds killed was not less than 60% and less than 80%)	5 (percentage of weeds killed was not less than 80%)	4 (percentage of weeds killed was not less than 60% and less than 80%)	3 (percentage of weeds killed was not less than 40% and less than 60%)	5 (percentage of weeds killed was not less than 80%)	5 (percentage of weeds killed was not less than 80%)	5 (percentage of weeds killed was not less than 80%)	3 (percentage of weeds killed was not less than 40% and less than 60%)	5 (percentage of weeds killed was not less than 80%)	5 (percentage of weeds killed was not less than 80%)
COc1cc(Oc2cccc(C(F)(F)F)c2)nc(C(=O)NC(C)C)c1 [Compound I-37, N-(i-propyl)-4-methoxy-6-{3-(trifluoromethyl)phenoxy}-2-pyridine carboxamide]	5 (percentage of weeds killed was not less than 80%)	5 (percentage of weeds killed was not less than 80%)	5 (percentage of weeds killed was not less than 80%)	4 (percentage of weeds killed was not less than 60% and less than 80%)	5 (percentage of weeds killed was not less than 80%)	5 (percentage of weeds killed was not less than 80%)	5 (percentage of weeds killed was not less than 80%)	5 (percentage of weeds killed was not less than 80%)	5 (percentage of weeds killed was not less than 80%)	5 (percentage of weeds killed was not less than 80%)	5 (percentage of weeds killed was not less than 80%)
